According to US8299077B2 (Roche Palo Alto LLC, priority 2009, dated 2012):

System: B cell receptor-mediated activation of B cells in human blood (CD69 expression)
Assay: Inhibition of B cell activation in whole blood measured by CD69 expression
Format: cell-based
Conditions: anti-IgM stimulation, 20 h, 50% decrease of CD69-positive cells that are also CD20-positive
In short: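 Healthy-donor human whole blood (heparin) preincubated with compound (nine-point, three-fold dilutions) for 30 min at 37 °C, then stimulated with goat F(ab′)2 anti-human IgM (50 μg/ml final) for 20 h. CD69-positive B cells (CD20 gating) measured by flow cytometry as percent positive; IC50 from dose-response fit.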

| IC50 [nM] | SMILES |
| --- | --- |
| 7 | CN1CCN(Cc2ccc(Nc3cc(-c4cccc(-n5ncc6cc(C(C)(C)C)cc(F)c6c5=O)c4CO)cn(C)c3=O)nc2)CC1 [Example I-15, 6-tert-butyl-8-fluoro-2-(2-hydroxymethyl-3-{1-methyl-5-[5-(4-methyl-piperazin-1-ylmethyl)-pyridin-2-ylamino]-6-oxo-1,6-dihydro-pyridin-3-yl}-phenyl)-2H-phthalazin-1-one] |
| 218 | CCc1ccc(Nc2cc(-c3cccc(-n4ncc5cc(C(C)(C)C)cc(F)c5c4=O)c3CO)cn(C)c2=O)nc1 [Example I-33, 6-tert-Butyl-2-{3-[5-(5-ethyl-pyridin-2-ylamino)-1-methyl-6-oxo-1,6-dihydro-pyridin-3-yl]-2-hydroxymethyl-phenyl}-8-fluoro-2H-phthalazin-1-one] |
| 6 | CCNCc1ccc(Nc2cc(-c3cccc(-n4ncc5cc(C(C)(C)C)cc(F)c5c4=O)c3CO)cn(C)c2=O)nc1 [Example I-42, 6-tert-Butyl-2-{3-[5-(5-ethylaminomethyl-pyridin-2-ylamino)-1-methyl-6-oxo-1,6-dihydro-pyridin-3-yl]-2-hydroxymethyl-phenyl}-8-fluoro-2H-phthalazin-1-one] |
| 4220 | CC1CCOC(Nc2cc(-c3cccc(-n4ncc5cc(C(C)(C)C)cc(F)c5c4=O)c3CO)cn(C)c2=O)=N1 (stereo not shown) [Example I-46, 6-tert-Butyl-8-fluoro-2-{2-hydroxymethyl-3-[1-methyl-5-(4-methyl-5,6-dihydro-4H-[1,3]oxazin-2-ylamino)-6-oxo-1,6-dihydro-pyridin-3-yl]-phenyl}-2H-phthalazin-1-one] |

System: not given
Assay: not given
Conditions: not given

| melting point [°C] | SMILES |
| --- | --- |
| 265 to 268 | CCNCc1ccc(Nc2cc(-c3cccc(-n4ncc5cc(C(C)(C)C)cc(F)c5c4=O)c3CO)cn(C)c2=O)nc1 [Example 29, 6-tert-Butyl-2-{3-[5-(5-ethylaminomethyl-pyridin-2-ylamino)-1-methyl-6-oxo-1,6-dihydro-pyridin-3-yl]-2-hydroxymethyl-phenyl}-8-fluoro-2H-phthalazin-1-one] |
| > 300 | CN1CC(Oc2ccc(Nc3cc(-c4cccc(-n5ncc6cc(C(C)(C)C)cc(F)c6c5=O)c4CO)cn(C)c3=O)nc2)C1 [Example 27, 6-tert-Butyl-8-fluoro-2-(2-hydroxymethyl-3-{1-methyl-5-[5-(1-methyl-azetidin-3-yloxy)-pyridin-2-ylamino]-6-oxo-1,6-dihydro-pyridin-3-yl}-phenyl)-2H-phthalazin-1-one] |
| 200 to 205 | Cn1cc(-c2cccc(-n3ncc4cc(C(C)(C)C)cc(F)c4c3=O)c2CO)cc(Nc2ccc(C(C)(C)O)cn2)c1=O [Example 37, 6-tert-Butyl-8-fluoro-2-(2-hydroxymethyl-3-{5-[5-(1-hydroxy-1-methyl-ethyl)-pyridin-2-ylamino]-1-methyl-6-oxo-1,6-dihydro-pyridin-3-yl}-phenyl)-2H-phthalazin-1-one] |
| 218 to 220 | Cn1cc(-c2cccc(-n3ncc4cc(C(C)(C)C)cc(F)c4c3=O)c2CO)cc(Nc2ccc(C(C)(C)C(=O)O)cn2)c1=O [Example 18, 2-(6-{5-[3-(6-tert-butyl-8-fluoro-1-oxo-1H-phthalazin-2-yl)-2-hydroxymethyl-phenyl]-1-methyl-2-oxo-1,2-dihydro-pyridin-3-ylamino}-pyridin-3-yl)-2-methyl-propionic acid] |
| 195 to 200 | CCNC(C)(C)c1ccc(Nc2cc(-c3cccc(-n4ncc5cc(C(C)(C)C)cc(F)c5c4=O)c3CO)cn(C)c2=O)nc1 [Example 260, 6-tert-Butyl-2-(3-{5-[5-(1-ethylamino-1-methyl-ethyl)-pyridin-2-ylamino]-1-methyl-6-oxo-1,6-dihydro-pyridin-3-yl}-2-hydroxymethyl-phenyl)-8-fluoro-2H-phthalazin-1-one] |
| 235 to 238 | CN1CCN(Cc2ccc(Nc3cc(-c4cccc(-n5ncc6cc(C(C)(C)C)cc(F)c6c5=O)c4CO)cn(C)c3=O)nc2)CC1 [Example I-15, 6-tert-butyl-8-fluoro-2-(2-hydroxymethyl-3-{1-methyl-5-[5-(4-methyl-piperazin-1-ylmethyl)-pyridin-2-ylamino]-6-oxo-1,6-dihydro-pyridin-3-yl}-phenyl)-2H-phthalazin-1-one] |
